From patent US20100168112A1, “2-Substituted and 4-substituted aryl nitrone compounds” (RENOVIS, INC., priority 2004, published 2010) come the findings set out here.

Series [1] is described as follows: DPPH free radical-scavenging/antioxidant assay. Type of series: biochemical. The conditions noted are these: 50 μM DPPH in 80% methanol; 24 h time point; read-out: EC50 (concentration at which a compound reduces by 50% the peak absorbance of DPPH at 520 nm). The protocol:
Nitrone compounds of the present invention were tested for their free-radical scavenging/antioxidant activity in an in vitro assay that is accepted by those skilled in the art as a model for conditions involving the generation of free radicals. The assay is based on a reaction between a free-radical donor, 2,2-diphenyl-1-picrylhydrazyl (DPPH), and a radical scavenger/antioxidant to be tested for free-radical scavenging activity. Upon donation of the free-radical electron to the purported radical scavenger, the peak visible absorbance of DPPH (515-520 nm) decreases so that optical density readings at this part of the visual spectrum reflect the progression of the following reaction:
where AH is a hypothetical radical scavenger/antioxidant. The assay is based on a protocol originally detailed in Brand-Williams, W. et al., 1995, Use of a Free Radical Method to Evaluate Antioxidant Activity, Lebensm. Wiss. Technol., 28:25-30, with further modifications described in L. R. Fukumoto and G. Mazza, 2000, Assessing Antioxidant and Prooxidant Activities of Phenolic Compounds, J. Agric. Food Chem., 48:3597-3604.
The antioxidant assay was performed using Perkin-Elmer 96-well, clear-bottom, black-wall plates (ordered from E & K Scientific Products) and a Tecan Safire absorbance plate reader. The positive controls were Trolox (6-hydroxy-2,5,7,8-tetramethylchromane-2-carboxylic acid, Sigma-Aldrich), BHA (2(3)-tert-butylhydroquinone monomethyl ether, Sigma-Aldrich), PBN (C-(phenyl)-N-(tert-butyl)nitrone, Sigma-Aldrich) and S-PBN (C-(2-sulfophenyl)-N-(tert-butyl)nitrone, sodium salt, prepared according to E. G. Janzen and R. V. Shetty, 1979, Tetrahedron Lett., 35: 3229-32), and the negative control (i.e., vehicle) was DMSO. In brief, 2 μL of 100× DMSO stock of the desired final concentration of each control or nitrone compound to be tested in the same batch was added to a separate well. To each well was then added 198 μL of a freshly made 50 μM DPPH (Sigma-Aldrich) solution in 80% methanol using a multi-channel pipette. The absorbance was immediately read on the plate reader at 520 nm and thereafter read periodically to assess kinetics until all reactions reached completion (i.e., steady state). Since the steady-state point was 24 h, the assay results are shown from the 24 h time point. The absorbance at 520 nm (OD) was plotted versus the concentrations of the controls and nitrone compounds to assess dose-response and interpolate the EC50 values of the controls and test compounds.

Series [2] is described as follows: Pharmacokinetic evaluation following intravenous and oral administration in rats. The conditions noted are these: male, Sprague-Dawley; for Cmax / Tmax / bioavailability: 5 mg/kg; for Cmax: rat plasma; for Cmax / Tmax: oral gavage, 2 mg/mL at 2.5 mL/kg; for clearance / Vd / Tmax / bioavailability / half-life: plasma, rat; for clearance / Vd / half-life: 1 mg/kg; for clearance / Vd: intravenous administration, 1 mg/mL at 1.0 mL/kg; for clearance: read-out: CI (clearance) (converted); for Vd: read-out: Vd (volume of distribution); for bioavailability: po 2 mg/mL at 2.5 mL/kg vs iv 1 mg/mL at 1.0 mL/kg, dose-normalized, read-out: F (%) oral bioavailability; for half-life: intravenous, read-out: T1/2 elimination half life (converted). Type of series: in vivo. The protocol: Male Sprague-Dawley rats were given at least 24 hours acclimation before experiment initiation. During acclimation period, all animals received food and water ad libitum. However, food (not water) was removed from the animal's cages up to 12 hours before initiation of the experiment. During the first 4 hours of experimentation, the animals received only water ad libitum. Two to three animals for iv and three animals for oral administration were tested. For iv formulation nitrone compounds of this invention were dissolved (1 mg/mL) in a mixture of 5% dimethyl acetamide (v/v), 0 to 4% Tween 80 (v/v), 10 to 40% PEG 400 (v/v) and the rest percentage of water (v/v). For oral formulation nitrone compounds of this invention were dissolved (2 mg/mL) in a mixture of 4% of 10% Tween in water and 96% of 0.5% carboxymethyl cellulose (medium viscosity) in water; or 4% of 10% Tween in water, 48% of 0.5% carboxymethyl cellulose (medium viscosity) in water, and 48% of 0.5% Hydroxypropyl Methylcellulose/0.2% Sodium Lauryl Sulfate in water. These formulations were stored at 5° C. until the experiment. Formulations were then stir-mixed at least half an hour before dosing. Exactly 200 μL of each left-over formulation was diluted with CH3CN/H2O for concentration analysis. The animals were weighed before dosing. The body weight was used to calculate the true dose for each animal:
IV dosing: • Dose volume (mL)=1.0 mL/kg The intravenous dose was administered through the jugular vein catheter or tail vein in less than 1 minute.
PO dosing: • Dose volume (mL)=2.5 mL/kg The oral dose was administered by oral gavage.
For IV dosing, blood samples were collected (using a pre-heparinized syringe) via the carotid artery or jugular vein catheter at t=2, 5, 15, 30, 60, 120, 180, 360, and 480 minutes post dosing. For PO dosing, blood samples were collected (using a pre-heparinized syringe) via the carotid artery or jugular vein catheter before dosing and at t=5, 15, 30, 60, 120, 180, 360, and 480 minutes post dosing. For some nitrone compounds a 1440 minutes (24 hours) sample was also taken for both IV and PO administrations. About 250 μL of blood was obtained at each time point from the animals. Equal volumes of 0.9% normal saline were replaced to prevent dehydration. The whole blood samples were maintained on ice until centrifugation. Blood samples were then centrifuged at 14,000 rpm for 10 minutes at 4° C. and the upper plasma layer transferred into a clean vial and stored at −80° C. The resulting plasma samples were then analyzed by mass spectroscopy using standard methods.
All the samples from above assays were analyzed on a PE-Sciex API 3000 triple quadrupole with a Turbo Ion Spray source. Nitrone compounds of this invention were separated from the matrix via a linear gradient reverse-phase chromatography using a C18 column, such as Thermo BDS Hypersil C18 (100×4.6 mm, 5 micron particle, 120A pore size). The mobile Phases were:
Nitrone compounds were detected by the mass spectrometer in the positive ion multiple reaction monitoring mode (MRM). For quantitative analysis, a standard curve was prepared by spiking a stock solution of the nitrone compound to the appropriate matrix to achieve a quantitation curve range and analyzed the standards in the same manner as the samples.
Pharmacokinetic parameters of the aryl nitrone compounds were determined by a noncompartmental analysis using WinNonlin-Pro (Version 4.1, Pharsight Corporation). Average and standard deviation of the parameters were calculated using standard formulas in Microsoft Excel.

Series [3] is described as follows: Microsomal stability in human liver microsomes. Type of series: in vitro ADME. Conditions: NADPH, 37° C. The protocol: Frozen Sprague-Dawley rat liver microsomes (RLM) were thawed on ice and gently mixed before use. The final reaction mixture consisted of a nitrone compound of this invention (at ˜500 ng/ml), 1 mM NADPH, and 0.5 mg/ml of RLM protein in 0.1 M PBS (pH7.4), with organic solvent concentration not exceeding 1% (v/v). Per set of incubations, a positive control compound was included. The mixture was first pre-incubated 3 to 5 minutes at 37° C. without NADPH, and the reaction was then initialized by the addition of NADPH and incubated at 37° C. for up to 30 minutes. An aliquot of the reaction mixture was sampled at the initiation of the reaction and at designated time after reaction started. The drawn samples were quenched with acetonitrile, diluted with mobile phase to ensure the detection of test article in the linear range, and analyzed by LC/MS/MS. Half-life or percentage of remaining nitrone compound was calculated using standard methods. A similar method, or a slight variation of it, was used to test the stability of nitrones in human liver microsomes (HLM).

With `CC(C)(C)/[N+]([O-])=C/c1ccc(S(=O)(=O)N2CCCCC2)cc1` [Compound 28, N-(tert-Butyl)-C-[4-(piperidine-1-sulfonyl)phenyl]nitrone], in series [1], the EC50 was > 1 mM. Besides, in series [2], the Cmax came out at 134 ng/mL, the clearance is 19 mL/min/kg, the Vd came to 19.9 L/kg and the Tmax was 64.8 min. For the same compound, in series [2], the bioavailability amounted to 13.8% and the half-life is 782 min.

In the case of `CC(C)(C)/[N+]([O-])=C/c1ccc(S(=O)(=O)N2CCCC2)cc1` [Compound 29, N-(tert-Butyl)-C-[4-(pyrrolidine-1-sulfonyl)phenyl]nitrone], the EC50 in series [1] was > 1 mM. Further, in series [2], the concentration peaked (Cmax) at 114 ng/mL, the clearance was 38 mL/min/kg, the Vd turned out to be 0.97 L/kg and the Tmax amounted to 11.4 min. Also, in series [2], the bioavailability was found to be 4.3% and the half-life was 17.4 min.

`CNS(=O)(=O)c1ccccc1/C=[N+](\[O-])C(C)(C)C` [Compound 47, N-tert-Butyl-C-(2-methylsulfamoyl-phenyl)nitrone]: the EC50 in series [1] was > 1 mM. For the same compound, the “% of Nitrone Remaining at 30 min (Human)” value in series [3] is on record as 100%.

Take `CC(C)(C)/[N+]([O-])=C/c1ccccc1S(=O)(=O)NCc1ccccc1` [Compound 49, N-tert-Butyl-C-(2-benzylsulfamoyl-phenyl)nitrone]: the EC50 in series [1] was > 1 mM. Moreover, the “% of Nitrone Remaining at 30 min (Human)” value in series [3] turned out to be 0%.

For `CCN(CC)S(=O)(=O)c1ccc(/C=[N+](\[O-])C(C)(C)C)cc1` [Compound 50, N-tert-Butyl-C-(4-diethylsulfamoylphenyl)nitrone], the EC50 in series [1] is > 1 mM. In series [3], the “% of Nitrone Remaining at 30 min (Human)” value amounted to 86%.

For the compound `CCN(CC)S(=O)(=O)c1ccc(/C=[N+](\[O-])C(C)C)cc1` [Compound 51, N-Isopropyl-C-(4-diethylsulfamoylphenyl)nitrone], in series [1], the EC50 was > 1 mM. For the same compound, in series [3], the “% of Nitrone Remaining at 30 min (Human)” value was found to be 94%.

For the compound `CCN(CC)S(=O)(=O)c1ccc(/C=[N+](\[O-])C2CCCCC2)cc1` [Compound 52, N-Cyclohexyl-C-(4-diethylsulfamoylphenyl)nitrone], the “% of Nitrone Remaining at 30 min (Human)” value in series [3] is listed as 64%.

Regarding `CCN(CC)S(=O)(=O)c1ccc(/C=[N+](\[O-])Cc2ccccc2)cc1` [Compound 53, N-Benzyl-C-(4-diethylsulfamoylphenyl)nitrone], the “% of Nitrone Remaining at 30 min (Human)” value in series [3] came out at 65%.

On to `CC(C)/[N+]([O-])=C/c1ccc(S(=O)(=O)N(C)c2ccccc2)cc1` [Compound 55, N-Isopropyl-C-[4-(methyl-phenyl-sulfamoyl)phenyl]nitrone], for which, in series [3], the “% of Nitrone Remaining at 30 min (Human)” value is on record as 82%.

Take `CN(c1ccccc1)S(=O)(=O)c1ccc(/C=[N+](\[O-])C2CCCCC2)cc1` [Compound 56, N-Cyclohexyl-C-[4-(methyl-phenyl-sulfamoyl)phenyl]nitrone]: the EC50 in series [1] was > 1 mM. Also, the “% of Nitrone Remaining at 30 min (Human)” value in series [3] is listed as 33%.

With `CN(c1ccccc1)S(=O)(=O)c1ccc(/C=[N+](\[O-])Cc2ccccc2)cc1` [Compound 57, N-Benzyl-C-[4-(methyl-phenyl-sulfamoyl)phenyl]nitrone], the EC50 in series [1] was > 1 mM. Further, the “% of Nitrone Remaining at 30 min (Human)” value in series [3] stood at 14%.

Consider `CC(C)(C)NS(=O)(=O)c1ccc(/C=[N+](\[O-])C(C)(C)C)cc1` [Compound 58, N-tert-Butyl-C[4-(tert-butylsulfamoyl)phenyl]nitrone], for which the EC50 in series [1] is > 1 mM. Also, the “% of Nitrone Remaining at 30 min (Human)” value in series [3] came to 100%.

As to `CC(C)/[N+]([O-])=C/c1ccc(S(=O)(=O)NC(C)(C)C)cc1` [Compound 59, N-Isopropyl-C-[4-(tert-butylsulfamoyl)phenyl]nitrone], the EC50 in series [1] was > 1 mM. Moreover, in series [3], the “% of Nitrone Remaining at 30 min (Human)” value came out at 100%.

Regarding `CC(C)(C)NS(=O)(=O)c1ccc(/C=[N+](\[O-])Cc2ccccc2)cc1` [Compound 61, N-Benzyl-C-[4-(tert-butylsulfamoyl)phenyl]nitrone], the EC50 in series [1] was > 1 mM. Further, the “% of Nitrone Remaining at 30 min (Human)” value in series [3] is reported as 95%.

As to `CC(C)(C)/[N+]([O-])=C/c1ccc(S(C)(=O)=O)nc1` [Compound 80, N-tert-Butyl-C-(6-methanesulfonyl-pyridine-3-yl)nitrone], in series [2], the concentration peaked (Cmax) at 3940 ng/mL, the clearance is 3.5 mL/min/kg, the Vd is 0.52 L/kg and the Tmax turned out to be 30 min. In addition, in series [2], the bioavailability was 54.7% and the half-life was 103 min. Moreover, in series [3], the “% of Nitrone Remaining at 30 min (Human)” value was 94.5%.

As for `CS(=O)(=O)c1ccc(/C=[N+](\[O-])Cc2ccccc2)cn1` [Compound 81, N-Benzyl-C-(6-methanesulfonyl-pyridine-3-yl)nitrone], the “% of Nitrone Remaining at 30 min (Human)” value in series [3] is reported as 90.5%.
